In patent US20080200531A1, “CDKI pathway inhibitors as inhibitors of tumor cell growth” (priority 2006, published 2008):

Tested on: HT1080 p21-9 cells
Experiment: FACS analysis of DNA content and GF7 mitotic staining
Format: cell-based, human
Source text: The combination of p21 and SNX9-class compounds leads to both G1 and G2/M arrest, at the levels expected for the combined effects of p21 and SNX9 (FIG. 6).

Cc1[nH]c2c(Cl)cccc2c1CCN [SNX9]
mitotic fraction (GF7 antibody staining) (SNX9-treated cells): increase in the mitotic fraction
G2/M fraction (FACS analysis of DNA content) (SNX9 alone): pronounced increase in the G2/M fraction
